Publication PMC4604124, “In Vitro Characterization of the Pharmacological Properties of the Anti-Cancer Chelator, Bp4eT, and Its Phase I Metabolites” (PLoS ONE, 2015)
Where “and” joins values, the source holds several entries; their conditions need not be identical. Identical values can stand only once. Like-named read-outs stand apart in the source and are kept apart here.

Key:
[1] = system: MCF-7 human breast adenocarcinoma cells; experiment: MTT cytotoxicity assay, MCF-7 cells; type: cell-based; conditions: for IC50: MTT, read-out: IC50
Protocol: For cytotoxicity experiments, cancer cells were seeded at a density of 5,000 (MCF-7), 10,000 (HL-60) or 2,000 cells/well (HCT116 and A549) in 96-well plates (TPP) for 24 h/37°C prior to the addition of examined agents. The non-cancerous cells, 3T3 and H9c2 cells, were cultured for 24 h/37°C in 96-well plates at a density of 10,000 cells/well, the medium was then changed to serum- and pyruvate-free DMEM (Sigma-Aldrich) and incubated with the cells for another 24 h/37°C. The cytotoxic effects of Bp4eT and its metabolites were studied at different concentrations after a 72 h/37°C incubation. In order to aid the dissolution of the lipophilic ligands, 0.1% dimethyl sulfoxide (v/v) (DMSO; Sigma-Aldrich) was present in the culture medium of all groups. At this concentration, DMSO had no effect on cellular proliferation or viability.
The viability of cells were determined using an MTT assay (Sigma-Aldrich) according to previously established methods. The optical density of soluble MTT was measured at λ = 570 nm, subtracting the λ = 690 nm background using a Tecan Infinite 200M plate reader (Tecan Group, Männedorf, Switzerland). The viability or proliferation of experimental groups was expressed as a percentage of the untreated controls (100%).
SigmaStat for Windows 3.5 (Systat Software, San Jose, CA, USA) statistical software package was utilized to analyze results. The data are expressed as the mean ± SD of a given number of experiments. Statistical significance was determined using a one-way ANOVA with a Bonferroni post-hoc test or Student’s t-test. The results were considered to be statistically significant when p < 0.05. The IC50 values were calculated using CalcuSyn 2.0 software (Biosoft, Cambridge, UK). Cell cycle analysis was evaluated using MultiCycle AV Software (Phoenix Flow Systems, San Diego, CA, USA).

[2] = system: MCF-7 cells prelabeled with 59Fe2-transferrin; experiment: Mobilization (efflux) of cellular 59Fe; type: cell-based, human; set-up: Efflux 59Fe / Efflux 59Fe, Ave: unit not given here
Source text: Human transferrin (Sigma) was labeled with ^56Fe or ^59Fe (PerkinElmer, Massachusetts, USA) to produce ^56Fe2-transferrin or ^59Fe2-transferrin (^59Fe2-Tf), respectively, with a final specific activity of 500 pCi/pmol Fe, as previously described. Unbound ^59Fe was removed by exhaustive vacuum dialysis against a large excess of 0.15 M NaCl buffered to pH 7.4 with 1.4% NaHCO3 by standard methods.
To examine the ability of studied compounds to mobilize cellular ^59Fe from MCF-7 cells, iron efflux experiments were performed using established techniques. In brief, after pre-labeling confluent MCF-7 cells on 6-well plates with 0.75 μM ^59Fe2-Tf for 3 h/37°C, the cells were washed four times with ice-cold PBS and then subsequently incubated with 25 μM of Bp4eT or its metabolites for 3 h/37°C. The overlying medium containing released ^59Fe was then decanted from the cells. Radioactivity was measured in both the cells and the supernatant using a γ-scintillation counter (Wallac Wizard 3, Turku, Finland).

[3] = Ascorbate oxidation assay (redox activity of iron complexes); type: biochemical;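 on %Fe 30min: ascorbate oxidation as % of the Fe control (Fe 100%): IBE 0.1 means iron-binding equivalents with iron in excess over chelator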
Protocol: The ascorbate oxidation assay was used to assess the redox activity of the iron complexes of the chelators using an established protocol. In brief, 100 μM ascorbic acid was prepared immediately prior to the experiment and incubated either alone or in the presence of 10 μM FeCl3 in a 50-fold molar excess (500 μM) of citrate and the chelators. Chelators were assayed at iron-binding equivalents (IBE) of 0.1 (excess of iron), 1 (fully coordinated iron—chelator complexes) and 3 (excess of free chelator). […] The decrease of absorbance between the two time points was calculated and expressed as a percentage of control without the chelator.

CCNC(=O)NN=C(c1ccccc1)c1ccccn1 [E-Bp4eS, 2-benzoylpyridine 4-ethylsemicarbazone]
Therapeutic index, IC50 non-cancerous cells / IC50 neoplastic cells ([1]; 3T3/MCF-7): >4.8 | Therapeutic index, IC50 non-cancerous cells / IC50 neoplastic cells ([1]; H9c2/MCF-7): 4.2 | IC50 ([1]; Homo sapiens, MCF7, 72 h, MCF-7, 72 h/37°C, mean ± SD, n ≥ 4): 208 ± 43.9 µM | IC50 ([1]; Homo sapiens, MCF7, MCF-7, 5 000 b/j, průměr (mean)): 209 µM | IC50 ([1]; Homo sapiens, MCF7, MCF-7, 5 000 b/j, single experiment (by date)): 194 µM | IC50 ([1]; MCF-7, 5 000 b/j, single experiment (by date)): 169 µM and 199 µM and 271 µM | MTT, value relative to 0 μM = 100 ([1]; MCF-7, 5 000 b/j, koncentrace 1 μM, průměr (mean)): 97.81 | MTT, value relative to 0 μM = 100 ([1]; MCF-7, 5 000 b/j, koncentrace 1 μM, single experiment (by date)): 92.729 and 97.0185 and 91.1778 and 97.3834 and 110.755 | MTT, value relative to 0 μM = 100 ([1]; MCF-7, 5 000 b/j, koncentrace 3 μM, průměr (mean)): 98.68 | MTT, value relative to 0 μM = 100 ([1]; MCF-7, 5 000 b/j, koncentrace 3 μM, single experiment (by date)): 98.4078 and 88.0788 and 100.293 and 107.936 | MTT, value relative to 0 μM = 100 ([1]; MCF-7, 5 000 b/j, koncentrace 10 μM, průměr (mean)): 97.39 | MTT, value relative to 0 μM = 100 ([1]; MCF-7, 5 000 b/j, koncentrace 10 μM, single experiment (by date)): 92.0003 and 97.1637 and 90.3424 and 98.5326 and 108.927 | MTT, value relative to 0 μM = 100 ([1]; MCF-7, 5 000 b/j, koncentrace 30 μM, průměr (mean)): 96.90 | MTT, value relative to 0 μM = 100 ([1]; MCF-7, 5 000 b/j, koncentrace 30 μM, single experiment (by date)): 97.756 and 80.695 and 97.8856 and 111.258 | MTT, value relative to 0 μM = 100 ([1]; MCF-7, 5 000 b/j, koncentrace 100 μM, průměr (mean)): 90.08 | MTT, value relative to 0 μM = 100 ([1]; MCF-7, 5 000 b/j, koncentrace 100 μM, single experiment (by date)): 88.6813 and 85.2546 and 75.1399 and 92.8747 and 108.447 | MTT, value relative to 0 μM = 100 ([1]; MCF-7, 5 000 b/j, koncentrace 300 μM, průměr (mean)): 23.35 | MTT, value relative to 0 μM = 100 ([1]; MCF-7, 5 000 b/j, koncentrace 300 μM, single experiment (by date)): 24.0916 and 23.1141 and 17.816 and 28.3884 | MTT, value relative to 0 μM = 100 ([1]; MCF-7, 5 000 b/j, koncentrace 1000 μM, průměr (mean)): 23.56 | MTT, value relative to 0 μM = 100 ([1]; MCF-7, 5 000 b/j, koncentrace 1000 μM, single experiment (by date)): 23.4887 and 24.7991 and 25.8548 and 20.0906 | Efflux 59Fe, Ave ([2]; average of all replicates): 3.661 | Efflux 59Fe ([2]; single replicate (three per date)): 4.9211 and 3.6997 and 3.3917 and 3.5987 and 3.8929 and 3.2529 and 3.6068 and 3.4574 and 3.1235 | %Fe 30min: ascorbate oxidation as % of the Fe control (Fe 100%) ([3]; IBE 0.1, 30 min, mean (průměr)): 110.6% | Change of absorbance after subtraction of time 0 (odečet 0) ([3]; IBE 0.1, time 10, mean (průměr)): -0.03606 | Change of absorbance after subtraction of time 0 (odečet 0) ([3]; IBE 0.1, time 20, mean (průměr)): -0.07143 | Change of absorbance after subtraction of time 0 (odečet 0) ([3]; IBE 0.1, time 30, mean (průměr)): -0.1048 | Absorbance (ascorbate, λ = 265 nm) ([3]; IBE 0.1, čas 0 (time 0), mean (průměr)): 0.8403 | Absorbance (ascorbate, λ = 265 nm) ([3]; IBE 0.1, čas 10 (time 10), mean (průměr)): 0.8042 | Absorbance (ascorbate, λ = 265 nm) ([3]; IBE 0.1, čas 20 (time 20), mean (průměr)): 0.7689 | Absorbance (ascorbate, λ = 265 nm) ([3]; IBE 0.1, čas 30 (time 30), mean (průměr)): 0.7355 | Absorbance (ascorbate, λ = 265 nm) ([3]; IBE 0.1, čas 30 (time 30), single wells): 0.7395 and 0.7451 and 0.7441 and 0.7317 and 0.7361 and 0.735 and 0.7279 and 0.7282
